# Laboratory results reported in publication PMC8253220, “Molecular design, synthesis and in vitro biological evaluation of thienopyrimidine–hydroxamic acids as chimeric kinase HDAC inhibitors: a challenging approach to combat cancer” (Journal of Enzyme Inhibition and Medicinal Chemistry, 2021).
# Several values for one entry are separate records, joined by “and”; a condition that tells them apart may be missing. Equal values may be shown once.
# Assays:
# [1] = tested on: Hela nuclear extracts; assay: Hela nuclear extract HDAC inhibitor assay (BPS Bioscience); format: biochemical; conditions: 10 µM
# Method: The purpose of the study is to determine the effects of twenty compounds from Misr International University on the enzymatic activities of hela nuclear extracts using an in vitro […]
# 7a Solution 10mM DMSO 10 10 % DMSO in
# 7b Solution 10mM DMSO 10 10 % DMSO in
# 7d Solution 10mM DMSO 10 10 % DMSO in
# 2.3 Experimental Conditions
# 2.3.1 Enzymes and Substrates
# Assay Catalog # Substrate
# Hela Nuclear Exctract 50053 10 µM HDAC Substrate 3
# For the hela nuclear extracts, hela cells were grown to 90 % confluency. Hela nuclear extracts were prepared from the Nuclear Extraction Kit from abcam (Catalog # ab113474). The final total protein concentration was calculated to be 2.4 µg/µl. From this, the hela nuclear extracts was diluted 20-fold in HDAC assay buffer and 5 µl of the dilution was added to a 50 µl reaction.
# The compounds are dissolved in DMSO. A series of dilutions of the compounds were prepared with 10% DMSO in HDAC assay buffer and 5 µl of the dilution was added to a 50 µl reaction so that the final concentration of DMSO is 1 % in all of […]
# The enzymatic reactions for the hela nuclear extract were conducted in duplicate at 37 °C for 60 minutes in a 50 µl mixture containing HDAC assay buffer, 5 µg BSA, an HDAC substrate (see 2.3.1), hela nuclear extract, and a test compound (see 2.2).
# After enzymatic reactions, 50μl of 2 x HDAC Developer was added to each well for the hela nuclear extract and the plate was incubated at room temperature for an additional 15 […]
# Fluorescence intensity was measured at an excitation of 360 nm and an emission of 460 nm using a Tecan Infinite M1000 microplate reader.
# Hela nuclear extract activity assays were performed in duplicates at each concentration.
# The fluorescent intensity data were analyzed using the computer software, Graphpad Prism. In the absence of the compound, the fluorescent intensity (Ft) in each data set was defined as 100% activity. In the absence of hela nuclear extract, the fluorescent intensity (Fb) in each data set was defined as 0% activity. The percent activity in the presence of each compound was calculated according to the following equation: %activity = (F-Fb)/(Ft-Fb), where F= the fluorescent intensity in the presence of the compound.
# The values of percentage activity were plotted on a bar graph.
# [2] = molecular target: EGFR (Homo sapiens, UniProt P00533); assay: In vitro EGFR tyrosine kinase inhibitory assay (Z'-LYTE, SelectScreen); format: biochemical; conditions: 10 µM single dose
# Method: (§1) The target compounds were evaluated for their in vitro inhibitory activities against EGFR, VEGFR-2, and HDAC6. The EGFR and VEGFR-2 inhibitory assays were performed at Thermo Fischer Scientific, Madison, WI, USA (SelectScreenServices@thermofisher.com). The HDAC inhibitory assays were performed at BPS Bioscience, San Diego, CA, USA (www.bpsbioscience.com). Initially, all of the synthesised target compounds were evaluated for their percent inhibitory activity against EGFR, VEGFR-2, and HDACs at 10 µM single dose concentration, in which their mean percent inhibition is summarised in (Figure 5, Tables 1 and [2]). Representative compounds were evaluated for their percent inhibitory activity against EGFR and VEGFR-2 at 6 different concentrations (0.1 nM, 1 nM, 10 nM, 100 nM, 1 µM, 10 µM) to subsequently calculate their IC50 values (Table 3). Additionally, all of the synthesised target compounds were submitted to the National Cancer Institute “NCI” Bethesda, Maryland, USA (www.dtp.nci.nih.gov), to evaluate theirs in vitro antiproliferative activities against NCI 60- cancer cell line panel.
# (§2) In vitro enzyme inhibition determination for the synthesised compounds was carried out in Thermo Fischer Scientific, Madison, WI, USA (SelectScreenServices@thermofisher.com). The EGFR and VEGFR-2 tyrosine kinase % inhibitory activity at a single-dose concentration of 10 µM was performed initially then representative compounds were evaluated at single-dose concentrations of (0.1 nM, 1 nM, 10 nM, 100 nM, 1 µM) using ZYLTE technology. A fluorescence-based, coupled-enzyme format is employed in the biochemical assay and depends on the sensitivity of proteolytic cleavage to non-phosphorylated and phosphorylated peptides. Then IC50 values for selected compounds were determined by GraphPad Prism at Misr international university.
# [3] = tested on: SF-295; assay: NCI one-dose screen; format: cell-based, human; conditions: CNS SF-295, 10 µM single dose
# Method: (§3) All of the synthesised structures were selected and submitted to NCI based on computer modelling techniques and the degree of diversity of structures for the evaluation of their antiproliferative activity. The 20 synthesised compounds were selected with their respective NCI codes [NCS D-820157- NCS D-820176] for the inhibition percent assay at an initial single dose of 10 μM on the full NCI 60 cell panel, where the mean graph of the percent growth for all compounds on the full NCI cell panel is evaluated, compared to the untreated control cells (Supplementary Material). In vitro cell line inhibition % of all synthesised compounds is represented in (Table 1 of Supplementary Material).
# (§4) All of the synthesised compounds (20) were submitted to NCI and selected for in vitro anticancer assay against a panel of 60 cancer cell lines. The methodology of assay and calculations is as reported.
# [4] = tested on: ACHN; assay: NCI one-dose screen; format: cell-based, human; conditions: Renal ACHN, 10 µM single dose
# Method: as §3, §4
# [5] = tested on: NCI/ADR-RES; assay: NCI one-dose screen; format: cell-based, human; conditions: Ovarian NCI/ADR-RES, 10 µM single dose
# Method: as §3, §4
# [6] = tested on: MCF7; assay: NCI one-dose screen; format: cell-based, human; conditions: Breast MCF7, 10 µM single dose
# Method: as §3, §4
# [7] = tested on: MDA-MB-468; assay: NCI one-dose screen; format: cell-based, human; conditions: Breast MDA-MB-468, 10 µM single dose
# Method: as §3, §4
# [8] = tested on: MDA-MB-231/ATCC; assay: NCI one-dose screen; format: cell-based, human; conditions: Breast MDA-MB-231/ATCC, 10 µM single dose
# Method: as §3, §4
# [9] = tested on: NCI-H460; assay: NCI one-dose screen; format: cell-based, human; conditions: NSCLC NCI-H460, 10 µM single dose
# Method: as §3, §4
# [10] = tested on: OVCAR-8; assay: NCI one-dose screen; format: cell-based, human; conditions: Ovarian OVCAR-8, 10 µM single dose
# Method: as §3, §4
# [11] = tested on: UACC-257; assay: NCI one-dose screen; format: cell-based, human; conditions: Melanoma UACC-257, 10 µM single dose
# Method: as §3, §4
# [12] = tested on: U251; assay: NCI one-dose screen; format: cell-based, human; conditions: CNS U251, 10 µM single dose
# Method: as §3, §4
# [13] = molecular target: VEGFR-2 (Homo sapiens, UniProt P35968); assay: In vitro VEGFR-2 tyrosine kinase inhibitory assay (Z'-LYTE, SelectScreen); format: biochemical; conditions: 10 µM single dose
# Method: as §1, §2
# Sequence of VEGFR-2 (P35968 20-1356): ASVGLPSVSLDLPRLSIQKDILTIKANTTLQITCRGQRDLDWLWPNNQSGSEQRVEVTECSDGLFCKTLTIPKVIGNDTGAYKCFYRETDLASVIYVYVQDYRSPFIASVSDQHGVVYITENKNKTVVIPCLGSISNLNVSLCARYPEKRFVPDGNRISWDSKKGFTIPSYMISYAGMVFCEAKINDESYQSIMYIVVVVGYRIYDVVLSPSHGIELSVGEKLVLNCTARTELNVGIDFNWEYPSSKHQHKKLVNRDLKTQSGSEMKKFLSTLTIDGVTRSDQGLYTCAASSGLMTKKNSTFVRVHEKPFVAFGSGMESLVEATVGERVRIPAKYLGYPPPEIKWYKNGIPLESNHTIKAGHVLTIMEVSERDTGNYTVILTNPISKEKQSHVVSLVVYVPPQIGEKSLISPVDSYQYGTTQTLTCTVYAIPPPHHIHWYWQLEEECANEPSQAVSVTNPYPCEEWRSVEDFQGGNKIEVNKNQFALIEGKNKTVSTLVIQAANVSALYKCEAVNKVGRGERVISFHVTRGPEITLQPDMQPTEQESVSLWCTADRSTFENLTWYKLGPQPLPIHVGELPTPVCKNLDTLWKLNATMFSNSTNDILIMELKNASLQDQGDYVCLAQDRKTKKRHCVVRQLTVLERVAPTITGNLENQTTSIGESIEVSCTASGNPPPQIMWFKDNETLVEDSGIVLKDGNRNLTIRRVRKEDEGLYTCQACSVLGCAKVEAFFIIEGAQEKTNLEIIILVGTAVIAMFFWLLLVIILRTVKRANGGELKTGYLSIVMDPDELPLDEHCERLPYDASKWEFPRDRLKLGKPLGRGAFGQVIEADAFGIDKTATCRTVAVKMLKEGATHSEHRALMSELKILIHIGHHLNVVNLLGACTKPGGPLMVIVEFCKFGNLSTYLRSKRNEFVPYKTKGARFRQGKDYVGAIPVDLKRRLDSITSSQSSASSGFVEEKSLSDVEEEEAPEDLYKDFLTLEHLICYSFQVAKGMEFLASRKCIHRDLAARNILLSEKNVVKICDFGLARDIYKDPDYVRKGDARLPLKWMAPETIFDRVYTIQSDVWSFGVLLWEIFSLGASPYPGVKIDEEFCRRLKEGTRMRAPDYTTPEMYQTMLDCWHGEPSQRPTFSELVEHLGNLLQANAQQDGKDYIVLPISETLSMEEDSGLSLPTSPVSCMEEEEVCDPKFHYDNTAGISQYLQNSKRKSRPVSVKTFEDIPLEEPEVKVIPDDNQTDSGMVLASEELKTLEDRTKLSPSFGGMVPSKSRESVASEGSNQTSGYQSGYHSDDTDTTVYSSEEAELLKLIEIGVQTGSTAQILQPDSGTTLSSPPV
# Sequence of EGFR (P00533 25-1210): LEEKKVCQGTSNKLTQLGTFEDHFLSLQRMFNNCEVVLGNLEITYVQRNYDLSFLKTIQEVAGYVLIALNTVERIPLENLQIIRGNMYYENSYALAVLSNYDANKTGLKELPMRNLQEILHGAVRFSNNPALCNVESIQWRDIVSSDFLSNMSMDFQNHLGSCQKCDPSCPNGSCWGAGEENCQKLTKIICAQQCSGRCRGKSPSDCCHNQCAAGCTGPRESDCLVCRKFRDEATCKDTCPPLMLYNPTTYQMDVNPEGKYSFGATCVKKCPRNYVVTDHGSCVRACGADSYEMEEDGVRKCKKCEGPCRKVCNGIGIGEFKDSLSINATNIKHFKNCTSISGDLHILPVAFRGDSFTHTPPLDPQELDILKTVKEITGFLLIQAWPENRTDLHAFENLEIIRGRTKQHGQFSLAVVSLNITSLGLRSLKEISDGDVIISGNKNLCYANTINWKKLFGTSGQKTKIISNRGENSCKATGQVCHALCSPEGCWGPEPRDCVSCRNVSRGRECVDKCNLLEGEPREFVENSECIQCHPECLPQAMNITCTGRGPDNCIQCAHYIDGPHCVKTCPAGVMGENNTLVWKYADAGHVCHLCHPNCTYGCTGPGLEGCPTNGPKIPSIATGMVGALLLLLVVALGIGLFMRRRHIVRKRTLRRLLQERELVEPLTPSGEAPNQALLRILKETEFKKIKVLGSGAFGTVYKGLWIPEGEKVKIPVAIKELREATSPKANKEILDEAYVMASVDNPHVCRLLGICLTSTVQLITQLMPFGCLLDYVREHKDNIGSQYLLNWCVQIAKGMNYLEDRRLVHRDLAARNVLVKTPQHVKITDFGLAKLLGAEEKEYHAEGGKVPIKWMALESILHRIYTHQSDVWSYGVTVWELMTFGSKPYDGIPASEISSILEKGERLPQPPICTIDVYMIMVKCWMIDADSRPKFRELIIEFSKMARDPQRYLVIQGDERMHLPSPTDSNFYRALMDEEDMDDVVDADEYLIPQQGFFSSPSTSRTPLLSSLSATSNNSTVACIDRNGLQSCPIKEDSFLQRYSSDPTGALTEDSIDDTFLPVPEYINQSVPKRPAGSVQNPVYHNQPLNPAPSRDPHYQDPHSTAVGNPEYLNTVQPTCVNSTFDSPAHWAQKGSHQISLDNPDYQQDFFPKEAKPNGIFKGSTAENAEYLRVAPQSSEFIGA
SMILES,% Inhibition Hela Nuclear Extracts [1] [%],inhibition at 10 µM [2] [%],Growth Percent [3],Growth Percent [4],Growth Percent [5],Growth Percent [6],Growth Percent [7],Growth Percent [8],Growth Percent [9],Growth Percent [10],Growth Percent [11],Growth Percent [12],melting point [°C],inhibition at 10 µM [13] [%]
"Cc1c(C(=O)NO)sc2ncnc(Nc3ccc(NC(=S)Nc4ccccc4)cc3)c12 [Compound 7d, 1–(4-(6-(hydroxycarbamoyl)-5-methylthieno[2,3-d]pyrimidin-4-ylamino)phenyl)-3-phenylthiourea]",3,78,98.3% and 98.32%,105.4% and 105.43%,99.5% and 99.55%,95.2% and 95.28%,103.9% and 103.92%,94.9% and 94.96%,102.0% and 102.05%,103.1%,99.4% and 99.45%,104.0% and 104.08%,300,45
"Cc1c(C(=O)NCCC(=O)NO)sc2ncnc(Nc3ccc(NC(=O)Nc4ccccc4)cc3)c12 [Compound 11a, 1–(4-(6-((3-(hydroxyamino)-3-oxopropyl)carbamoyl)-5-methylthieno[2,3-d]pyrimidin-4-ylamino)phenyl)-3-phenylurea]",0,12,95.2% and 95.29%,101.6% and 101.68%,99.0% and 99.07%,92.3%,101.3% and 101.31%,97.6% and 97.67%,101.8% and 101.81%,101.0% and 101.03%,101.0% and 101.08%,96.9% and 96.93%,225,47
"COc1cccc(NC(=O)Nc2ccc(Nc3ncnc4sc(C(=O)NCCC(=O)NO)c(C)c34)cc2)c1 [Compound 11b, 1–(4-(6-((3-(hydroxyamino)-3-oxopropyl)carbamoyl)-5-methylthieno[2,3-d]pyrimidin-4-ylamino)phenyl)-3–(3-methoxyphenyl)urea]",4,5,100.0% and 100.08%,106.0% and 106.03%,102.4% and 102.42%,90.5% and 90.58%,83.0% and 83.04%,100.5% and 100.55%,101.9% and 101.91%,99.2% and 99.26%,99.1% and 99.15%,97.1% and 97.12%,257 to 260,75
"Cc1c(C(=O)NCCC(=O)NO)sc2ncnc(Nc3ccc(NC(=O)Nc4cccc(C(F)(F)F)c4)cc3)c12 [Compound 11c, 1–(4-(6-((3-(hydroxyamino)-3-oxopropyl)carbamoyl)-5-methylthieno[2,3-d]pyrimidin-4-ylamino)phenyl)-3–(3-(trifluoromethyl)phenyl)urea]",5,11,91.8% and 91.82%,101.7% and 101.74%,103.1% and 103.18%,89.2% and 89.23%,97.1% and 97.16%,105.2% and 105.25%,99.4% and 99.41%,102.2% and 102.23%,108.3% and 108.33%,80.2% and 80.22%,281,91
"Cc1c(C(=O)NCCCC(=O)NO)sc2ncnc(Nc3ccc(NC(=O)Nc4ccccc4)cc3)c12 [Compound 12a, 1–(4-(6-((4-(hydroxyamino)-4-oxobutyl)carbamoyl)-5-methylthieno[2,3-d]pyrimidin-4-ylamino)phenyl)-3-phenylurea]",2,11,102.0% and 102.06%,95.4% and 95.45%,103.7% and 103.79%,92.4% and 92.41%,100.0% and 100.06%,92.1% and 92.16%,102.6% and 102.61%,104.6% and 104.68%,104.2% and 104.23%,92.3% and 92.32%,219,48
